Assay results as given in US20020132817A1, “Heterocyclic compounds, their production and use” (priority 1998, published 2002).
Marks after values point to notes of the source that are not given here.

Experiments:
[1] = molecular target: T1, substance P receptor (Homo sapiens, UniProt P25103); test: Radioligand receptor binding inhibitory activity using receptor from human lymphoblast cells (IM-9); conditions: 125I-BHSP radioligand, receptor from IM-9 cells, 25° C. for 30 minutes
T1 construct: The receptor was prepared from human lymphoblast cells (IM-9); endogenous in cells; host or cells: IM-9 human lymphoblast cells (membrane preparation)
Experimental: Radioligand receptor binding inhibitory activity Binding inhibitory activity using receptor from human lymphoblast cells (IM-9)
The receptor was prepared from human lymphoblast cells (IM-9). IM-9 cells (2×10^5 cells/ml) were inoculated and incubated for 3 days (one liter), which was then subjected to centrifuge for 5 minutes at 500×g to obtain cell pellets. […] The residue was washed twice with 30 ml of the above-mentioned buffer, which was then preserved frozen (−80° C.) as a specimen of the receptor.
The specimen was suspended in a reaction buffer (50 mM Tri-HCl buffer (pH 7.4), 0.02% bovine serum albumin, 1 mM phenylmethylsulfonyl fluoride, […], […] bacitracin, 3 mM manganese chloride) and 100 ul portion was the suspension was used in the reaction. […] The amount of nonspecific binding was determined by adding substance P at a final concentration of 2×10^−6M. After the reaction, using a cell harvester (290 PHD, Cambridge Technology, Inc, U.S.A.), rapid filtration was carried out through a glass filter (GF/B, Whatman, U.S.A.) to stop the reaction. After washing three times with 250 ul of 50 mM of Tris-HCl buffer (pH 7.4) containing 0.02% bovine serum albumin, the radioactivity remaining on the filter was determined with a gamma counter. Before use, the filter was immersed in 0.1% polyethyleneimine for 24 hours and air-dried.

[2] = tested on: plasma extravasation induced by capsaicin in trachea of guinea pigs; test: Inhibitory effect on plasma extravasation induced by capsaicin in trachea of guinea pigs; assay type: in vivo; conditions: for ED50: Cavia porcellus, iv, 5 minutes before capsaicin, Evans' blue dye in trachea, read-out: ID50, μg/kg, i.v.
Experimental: Guinea pigs (Hartley type white male guinea pige), (n=6) were anesthetized with 35 mg/kg of pentobarbital injected intraperitoneally (i.p.), then test compounds were administered intravenously (i.v.). After 5 minutes, a mixed solution of capsaicin ([…]) and Evans' blue dye (20 mg/kg) was administered intravenously to cause reaction. Ten minutes later, test animals were sacrificed by cutting the aorta, then perfused through pulmonary artery with 50 ml of physiological saline. The trachea was excised, and its wet weight was measure. The trachea was incubated at room temperature in 1 ml of acetone-0.3% sodium sulfate (7:3) overnight and Evans' blue dye was extracted from the trachea. The extract solution was centrifuged at 2800 rpm for 5 minutes. The amount of Evans' blue dye in the supernatant was quantified by measuring absorbance at […].
The reaction of accelerating the permeability of blood vessels is expressed in terms of the amount of Evans' blue (μg) per trachea unit weight (g) and the effect of drug was evaluated by calculating the degree of inhibition (% inhibition) according to the following equation: […]

[3] = molecular target: T2, human NK2 receptor (Homo sapiens, UniProt P21452); test: Binding inhibitory activity toward human NK2 receptor; conditions: (2-[125I]iodohistidyl1)Neurokinin A 0.1 nM, receptor expressed in COS-7 cells, room temperature 60 min
T2 construct: expressed in transfected cells; host or cells: COS-7 cells, transient transfection with an SRa-promoter expression vector; membrane preparation
T2 sequence (P21452 1-398): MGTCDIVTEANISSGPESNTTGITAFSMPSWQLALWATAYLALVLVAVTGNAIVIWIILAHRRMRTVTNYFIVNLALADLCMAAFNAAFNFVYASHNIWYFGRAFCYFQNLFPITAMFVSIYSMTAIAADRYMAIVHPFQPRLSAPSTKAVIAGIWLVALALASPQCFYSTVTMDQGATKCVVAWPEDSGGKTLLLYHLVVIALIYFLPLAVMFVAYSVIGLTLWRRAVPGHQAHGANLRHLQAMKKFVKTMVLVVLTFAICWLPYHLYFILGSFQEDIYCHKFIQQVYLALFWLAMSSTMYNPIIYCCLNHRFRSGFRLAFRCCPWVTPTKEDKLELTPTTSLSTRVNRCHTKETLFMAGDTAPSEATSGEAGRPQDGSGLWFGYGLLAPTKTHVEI

T1 sequence (P25103 whole entry): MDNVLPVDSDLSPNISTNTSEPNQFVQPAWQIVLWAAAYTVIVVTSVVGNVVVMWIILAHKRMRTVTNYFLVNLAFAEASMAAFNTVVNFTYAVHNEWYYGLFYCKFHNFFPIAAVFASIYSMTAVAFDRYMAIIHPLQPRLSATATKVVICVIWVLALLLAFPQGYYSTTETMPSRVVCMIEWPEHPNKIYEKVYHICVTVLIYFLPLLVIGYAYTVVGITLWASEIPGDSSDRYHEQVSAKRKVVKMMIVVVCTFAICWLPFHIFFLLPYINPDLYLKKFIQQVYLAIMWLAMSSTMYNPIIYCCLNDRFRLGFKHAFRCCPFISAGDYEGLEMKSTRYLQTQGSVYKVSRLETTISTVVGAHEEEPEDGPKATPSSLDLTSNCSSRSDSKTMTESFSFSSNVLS

Structure (SMILES) | IC50 [1] [nM] | melting point [°C] | IC50 [3] [nM] | ED50 [2] [µg/kg] | Degree of Inhibition (%) ([2]; Dosage (i.v.) 100 μg/kg)
Cc1cnc2c(c1-c1ccccc1)C(=O)N(Cc1cc(C(F)(F)F)cc(C(F)(F)F)c1)CCO2 [Reference Example 77, 4-[3,5-Bis(trifluoromethyl)benzyl]-2,3,4,5-tetrahydro-7-methyl-5-oxo-6-phenylpyrido[3,2-f][1,4]oxazepine] | 1.1 | – | – | – | 64.0* %
Cc1ccc(-c2c3n(c(=O)c4ncccc24)C[C@H](C)CN(Cc2cc(C(F)(F)F)cc(C(F)(F)F)c2)C3=O)cc1 [Reference Example 66, (9R)-7-[3,5-Bis(trifluoromethyl)benzyl]-6,7,8,9,10,12-hexahydro-9-methyl-5-(4-methylphenyl)-6,12-dioxo[1,4]diazepino[2,1-g][1,7]naphthyridine] | – | 179 to 180 | – | 41 | –
C[C@H]1CN(Cc2cc(C(F)(F)F)cc(C(F)(F)F)c2)C(=O)c2c(-c3ccccc3)c3cccnc3c(=O)n2C1 [Reference Example 67, (9S)-7-[3,5-Bis(trifluoromethyl)benzyl]-6,7,8,9,10,12-hexahydro-9-methyl-6,12-dioxo-5-phenyl[1,4]diazepino[2,1-g][1,7]naphthyridine] | 0.17 | 150 to 152 | – | 1.6 | –
Cc1cc(-c2ccccc2)c2c(n1)OCCN(Cc1cc(C(F)(F)F)cc(C(F)(F)F)c1)C2=O [Reference Example 87, 4-[3,5-Bis(trifluoromethyl)benzyl]-2,3,4,5-tetrahydro-8-methyl-5-oxo-6-phenylpyrido[3,2-f][1,4]oxazepine] | – | 151 to 153 | 9.5 | – | –
O=C1c2c(-c3ccccc3)ccnc2OCCCN1Cc1cc(C(F)(F)F)cc(C(F)(F)F)c1 [Reference Example 76, 5-[3,5-Bis(trifluoromethyl)benzyl]-2,3,4,5-tetrahydro-6-oxo-7-phenyl-6H-pyrido[2,3-b][1,5]oxazocine] | – | 188 to 189 | 7.5 | – | –
C[C@@H]1CCn2c(c(-c3ccc(CO)cc3)c3cccnc3c2=O)C(=O)N(Cc2cc(C(F)(F)F)cc(C(F)(F)F)c2)C1 [Reference Example 137, (9R)-7-[3,5-bis(trifluoromethyl)benzyl]-6,7,8,9,10,11-hexahydro-5-(4-hydroxymethylphenyl)-9-methyl-6,13-dioxo-13H-[1,4]diazosino[2,1-g][1,7]napththylidine] | 0.84 | 240 to 241 | – | 2.5 | –
O=C1c2c(-c3ccccc3)c3cccnc3c(=O)n2CCCN1Cc1cc(C(F)(F)F)cc(C(F)(F)F)c1 [Reference Example 61, 7-[3,5-Bis(trifluoromethyl)benzyl]-6,7,8,9,10,12-hexahydro-6,12-dioxo-5-phenyl[1,4]diazepino[2,1-g][1,7]naphthyridine] | – | – | – | 2.6 | –
Cc1ccc(-c2c3n(c(=O)c4ncccc24)C[C@@H](C)CN(Cc2cc(C(F)(F)F)cc(C(F)(F)F)c2)C3=O)cc1 [Reference Example 68, (9S)-7-[3,5-Bis(trifluoromethyl)benzyl]-6,7,8,9,10,12-hexahydro-9-methyl-5-(4-methylphenyl)-6,12-dioxo[1,4]diazepino[2,1-g][1,7]naphthyridine] | – | 179 to 180 | – | 3.2 | –

Further lines, with some results ahead:

IC50 [1] [nM] | melting point [°C] | IC50 [3] [nM] | Structure (SMILES) | ED50 [2] [µg/kg] | Degree of Inhibition (%) ([2]; Dosage (i.v.) 100 μg/kg)
0.28 | 194 to 195 | – | Cc1ccc(-c2c3n(c(=O)c4ncccc24)CCCN(Cc2cc(C(F)(F)F)cc(C(F)(F)F)c2)C3=O)cc1 [Reference Example 56, 7-[3,5-Bis(trifluoromethyl)benzyl]-6,7,8,9,10,12-hexahydro-5-(4-methylphenyl)-6,12-dioxo[1,4]diazepino[2,1-g][1,7]naphthyridine] | 7.2 | –
– | – | 6.2 | O=C1c2c(-c3ccccc3)c3cccnc3c(=O)n2CCCCN1Cc1ccccc1 [Reference Example 81, 7-Benzyl-6,7,8,9,10,11-hexahydro-6,13-dioxo-5-phenyl-13H-[1,4]diazocino[2,1-g][1,7]naphthyridine] | – | –
0.76 | – | – | Cc1ccc(-c2c3n(c(=O)c4ncccc24)CCCCN(Cc2cc(C(F)(F)F)cc(C(F)(F)F)c2)C3=O)cc1 [Reference Example 57, 7-[3,5-Bis(trifluoromethyl)benzyl]-6,7,8,9,10,11-hexahydro-5-(4-methylphenyl)-6,13-dioxo-13H-[1,4]diazocino[2,1-g][1,7]naphthyridine] | 4.2 | –
1.2 | – | – | O=C1c2c(-c3ccccc3)c3cccnc3c(=O)n2CCCCN1Cc1cc(C(F)(F)F)cc(C(F)(F)F)c1 [Reference Example 62, 7-[3,5-Bis(trifluoromethyl)benzyl]-6,7,8,9,10,11-hexahydro-6,13-dioxo-5-phenyl-13H-[1,4]diazocino[2,1-g][1,7]naphthyridine] | 3.2 | –
0.23 | 245 to 247 | – | C[C@@H]1CCn2c(c(-c3ccccc3)c3cccnc3c2=O)C(=O)N(Cc2cc(C(F)(F)F)cc(C(F)(F)F)c2)C1 [Reference Example 71, (9R)-7-[3,5-Bis(trifluoromethyl)benzyl]-6,7,8,9,10,11-hexahydro-9-methyl-6,13-dioxo-5-phenyl-13H-[1,4]diazocino[2,1-g] [1,7]naphthyridine] | 1.9 | –
